# Results published in ChEMBL document CHEMBL1138817, “Synthesis and cytotoxic activity of 3-O-acyl/3-hydrazine /2-bromo/20,29-dibromo betulinic acid derivatives” (2004).
# Tests used:
# Type in all cases: functional
# CCRF-CEM = test: Cytotoxic activity against human CEM.CM3 cell line was measured after 72 hr using MTT assay; conditions: for EC50: Homo sapiens, CCRF-CEM, 72 h, read-out: ED50 (the source's name)
# DU-145 = test: Cytotoxic activity against human DU145 cell line was measured after 72 hr using MTT assay; conditions: for EC50: Homo sapiens, DU-145, 72 h, read-out: ED50 (the source's name)
# U-937 = test: Cytotoxic activity against human U937 cell line was measured after 72 hr using MTT assay; conditions: for EC50: Homo sapiens, U-937, 72 h, read-out: ED50 (the source's name)
# MOLT-4 = test: Cytotoxic activity against human MOLT-4 cell line was measured after 72 hr using MTT assay; conditions: for EC50: Homo sapiens, MOLT-4, 72 h, read-out: ED50 (the source's name)
# A549 = test: Cytotoxic activity against human A549 cell line was measured after 72 hr using MTT assay; conditions: A549, 72 h, read-out: ED50 (the source's name)
# BRISTOL8 = test: Cytotoxic activity against human BRISTOL8 cell line was measured after 72 hr using MTT assay; conditions: for EC50: Homo sapiens, BRISTOL8, 72 h, read-out: ED50 (the source's name)
# L132 = test: Cytotoxic activity against human L132 cell line was measured after 72 hr using MTT assay; conditions: L132, 72 h, read-out: ED50 (the source's name)
# PA-1 = test: Cytotoxic activity against human PA-1 cell line was measured after 72 hr using MTT assay; conditions: for EC50: Homo sapiens, PA-1, 72 h, read-out: ED50 (the source's name)
# Jurkat = test: Cytotoxic activity against human JurkatE6.1 cell line was measured after 72 h using MTT assay; conditions: for EC50: Homo sapiens, Jurkat, 72 h, read-out: ED50 (the source's name)
smiles,measurement,setting,value
CC(C)[C@@H]1CC[C@]2(C(=O)O)CC[C@]3(C)C(CCC4[C@@]5(C)CC[C@H](O)C(C)(C)C5CC[C@]43C)C12 (stereo partly specified) [DIHYDROBETULINIC ACID],EC50,CCRF-CEM,1.3 µg/mL
same,EC50,DU-145,0.7 µg/mL
same,EC50,U-937,0.9 µg/mL
same,EC50,MOLT-4,0.6 µg/mL
same,EC50,A549,2.2 µg/mL
same,EC50,BRISTOL8,4.4 µg/mL
same,EC50,L132,2.4 µg/mL
same,EC50,PA-1,0.7 µg/mL
same,EC50,Jurkat,4.9 µg/mL
COC(=O)COC(=O)[C@]12CC[C@@H](C(C)C)C1C1CCC3[C@@]4(C)CC[C@H](O)C(C)(C)C4CC[C@@]3(C)[C@]1(C)CC2 (stereo partly specified),EC50,CCRF-CEM,2.5 µg/mL
same,EC50,DU-145,> 10 µg/mL
same,EC50,U-937,> 10 µg/mL
same,EC50,MOLT-4,2.8 µg/mL
same,EC50,A549,> 10 µg/mL
same,EC50,BRISTOL8,3.4 µg/mL
same,EC50,L132,> 10 µg/mL
same,EC50,PA-1,0.5 µg/mL
same,EC50,Jurkat,5.5 µg/mL
COC(=O)COC(=O)[C@]12CC[C@@H](C(C)(Br)CBr)C1C1CCC3[C@@]4(C)CC(Br)C(=O)C(C)(C)C4CC[C@@]3(C)[C@]1(C)CC2 (stereo partly specified),EC50,CCRF-CEM,1.2 µg/mL
same,EC50,DU-145,4.5 µg/mL
same,EC50,U-937,0.7 µg/mL
same,EC50,MOLT-4,1.3 µg/mL
same,EC50,A549,> 10 µg/mL
same,EC50,BRISTOL8,1.9 µg/mL
same,EC50,L132,> 10 µg/mL
same,EC50,PA-1,2.5 µg/mL
same,EC50,Jurkat,1.1 µg/mL
CC(=O)O[C@H]1C(Br)C[C@@]2(C)C(CC[C@]3(C)C2CCC2C4[C@H](C(C)(Br)CBr)CC[C@]4(C(=O)O)CC[C@]23C)C1(C)C (stereo partly specified),EC50,CCRF-CEM,2.7 µg/mL
same,EC50,DU-145,2.5 µg/mL
same,EC50,U-937,0.3 µg/mL
same,EC50,MOLT-4,2.8 µg/mL
same,EC50,A549,> 10 µg/mL
same,EC50,BRISTOL8,1.4 µg/mL
same,EC50,L132,> 10 µg/mL
same,EC50,PA-1,2.4 µg/mL
same,EC50,Jurkat,6.9 µg/mL
CC1(C)C(=O)C(Br)C[C@@]2(C)C1CC[C@]1(C)C2CCC2C3[C@H](C(C)(Br)CBr)CC[C@]3(C(=O)O)CC[C@]21C (stereo partly specified),EC50,CCRF-CEM,2.8 µg/mL
same,EC50,DU-145,3.6 µg/mL
same,EC50,U-937,2.1 µg/mL
same,EC50,MOLT-4,5.9 µg/mL
same,EC50,A549,> 10 µg/mL
same,EC50,BRISTOL8,3.8 µg/mL
same,EC50,L132,> 10 µg/mL
same,EC50,PA-1,5.1 µg/mL
same,EC50,Jurkat,2.1 µg/mL
C=C(C)[C@@H]1CC[C@]2(C(=O)O)CC[C@]3(C)C(CCC4[C@@]5(C)CC[C@H](OC(=O)CC)C(C)(C)C5CC[C@]43C)C12 (stereo partly specified),EC50,CCRF-CEM,5.5 µg/mL
same,EC50,DU-145,4.2 µg/mL
same,EC50,U-937,6.8 µg/mL
same,EC50,MOLT-4,3.3 µg/mL
same,EC50,A549,> 10 µg/mL
same,EC50,BRISTOL8,2.1 µg/mL
same,EC50,L132,> 10 µg/mL
same,EC50,PA-1,3.7 µg/mL
same,EC50,Jurkat,2.1 µg/mL
CC(=O)O[C@H]1CC[C@@]2(C)C(CC[C@]3(C)C2CCC2C4[C@H](C(C)C)CC[C@]4(C(=O)O)CC[C@]23C)C1(C)C (stereo partly specified),EC50,CCRF-CEM,1 µg/mL
same,EC50,DU-145,0.9 µg/mL
same,EC50,U-937,1.8 µg/mL
same,EC50,MOLT-4,1.1 µg/mL
same,EC50,A549,2.3 µg/mL
same,EC50,BRISTOL8,3.4 µg/mL
same,EC50,L132,2.9 µg/mL
same,EC50,PA-1,0.8 µg/mL
same,EC50,Jurkat,1.6 µg/mL
C=C(C)[C@@H]1CC[C@]2(C(=O)O)CC[C@]3(C)[C@H](CC[C@@H]4[C@@]5(C)CC[C@H](O)C(C)(C)[C@@H]5CC[C@]43C)[C@@H]12 [BETULINIC ACID],EC50,CCRF-CEM,0.98 µg/mL
same,EC50,DU-145,1.13 µg/mL
same,EC50,U-937,0.69 µg/mL
same,EC50,MOLT-4,1.23 µg/mL
same,EC50,A549,> 10 µg/mL
same,EC50,BRISTOL8,0.84 µg/mL
same,EC50,L132,1.3 µg/mL
same,EC50,PA-1,> 10 µg/mL
same,EC50,Jurkat,0.65 µg/mL
C=C(C)[C@@H]1CC[C@]2(C(=O)O)CC[C@]3(C)C(CCC4[C@@]5(C)CC/C(=N\OS(=O)(=O)c6ccc(C)cc6)C(C)(C)C5CC[C@]43C)C12 (stereo partly specified),EC50,CCRF-CEM,1.5 µg/mL
same,EC50,DU-145,2.8 µg/mL
same,EC50,U-937,4.8 µg/mL
same,EC50,MOLT-4,2.7 µg/mL
same,EC50,A549,> 10 µg/mL
same,EC50,BRISTOL8,3.3 µg/mL
same,EC50,L132,> 10 µg/mL
same,EC50,PA-1,1.8 µg/mL
same,EC50,Jurkat,4.9 µg/mL
C=C(C)[C@@H]1CC[C@]2(C(=O)OCC(=O)OC)CC[C@]3(C)C(CCC4[C@@]5(C)CC[C@H](O)C(C)(C)C5CC[C@]43C)C12 (stereo in doubt; 4),ED50,CCRF-CEM,5.9 µg/mL
same,ED50,DU-145,1.9 µg/mL
same,ED50,U-937,5.4 µg/mL
same,ED50,MOLT-4,2.9 µg/mL
same,ED50,BRISTOL8,7.4 µg/mL
same,ED50,PA-1,3.1 µg/mL
same,ED50,Jurkat,3.1 µg/mL
C=C(C)[C@@H]1CC[C@]2(C(=O)OCC(=O)OC)CC[C@]3(C)C(CCC4[C@@]5(C)CC[C@H](O)C(C)(C)C5CC[C@]43C)C12 (stereo in doubt; 3),EC50,CCRF-CEM,3.2 µg/mL
same,ED50,DU-145,>10 µg/mL
same,EC50,U-937,> 10 µg/mL
same,EC50,MOLT-4,4 µg/mL
same,EC50,A549,> 10 µg/mL
same,EC50,BRISTOL8,5.3 µg/mL
same,EC50,L132,> 10 µg/mL
same,EC50,PA-1,5.9 µg/mL
same,ED50,Jurkat,1.4 µg/mL
C=C(C)[C@@H]1CC[C@]2(C(=O)OCC(=O)OC)CC[C@]3(C)C(CCC4[C@@]5(C)CCC(=N)C(C)(C)C5CC[C@]43C)C12 (stereo partly specified),EC50,CCRF-CEM,1.4 µg/mL
same,EC50,DU-145,5.5 µg/mL
same,EC50,U-937,1.7 µg/mL
same,EC50,MOLT-4,1.7 µg/mL
same,EC50,A549,> 10 µg/mL
same,EC50,BRISTOL8,1.4 µg/mL
same,EC50,L132,> 10 µg/mL
same,EC50,PA-1,6.5 µg/mL
same,EC50,Jurkat,0.5 µg/mL
C=C(C)[C@@H]1CC[C@]2(C(=O)CC(=O)OC)CC[C@]3(C)C(CCC4[C@@]5(C)CC[C@H](O)C(C)(C)C5CC[C@]43C)C12 (stereo partly specified),EC50,CCRF-CEM,6.4 µg/mL
same,EC50,DU-145,2.9 µg/mL
same,EC50,U-937,> 10 µg/mL
same,EC50,MOLT-4,3.9 µg/mL
same,EC50,A549,> 10 µg/mL
same,EC50,BRISTOL8,4.5 µg/mL
same,EC50,L132,> 10 µg/mL
same,EC50,PA-1,7.1 µg/mL
same,EC50,Jurkat,7.4 µg/mL
CC(C)[C@@H]1CC[C@]2(C(=O)O)CC[C@]3(C)C(CCC4[C@@]5(C)CC/C(=N\Nc6ccccc6)C(C)(C)C5CC[C@]43C)C12 (stereo partly specified),EC50,CCRF-CEM,2.9 µg/mL
same,EC50,DU-145,0.6 µg/mL
same,EC50,U-937,2.2 µg/mL
same,EC50,MOLT-4,1.4 µg/mL
same,EC50,A549,> 10 µg/mL
same,EC50,BRISTOL8,3.7 µg/mL
same,EC50,L132,7.4 µg/mL
same,EC50,PA-1,0.4 µg/mL
same,EC50,Jurkat,6.3 µg/mL
C=C(C)[C@@H]1CC[C@]2(C(=O)OCC(=O)O)CC[C@]3(C)C(CCC4[C@@]5(C)CC[C@H](O)C(C)(C)C5CC[C@]43C)C12 (stereo partly specified),EC50,CCRF-CEM,> 10 µg/mL
same,EC50,DU-145,> 10 µg/mL
same,EC50,U-937,> 10 µg/mL
same,EC50,MOLT-4,3.1 µg/mL
same,EC50,A549,> 10 µg/mL
same,EC50,L132,> 10 µg/mL
same,EC50,PA-1,1.3 µg/mL
same,EC50,Jurkat,> 10 µg/mL
C=C(C)[C@@H]1CC[C@]2(C(=O)O)CC[C@]3(C)C(CCC4[C@@]5(C)CC[C@H](OC(=O)C(C)C(=O)OC)C(C)(C)C5CC[C@]43C)C12 (stereo partly specified),EC50,CCRF-CEM,1.6 µg/mL
same,EC50,DU-145,1.6 µg/mL
same,EC50,U-937,1.1 µg/mL
same,EC50,MOLT-4,1.2 µg/mL
same,EC50,A549,> 10 µg/mL
same,EC50,BRISTOL8,1.7 µg/mL
same,EC50,L132,> 10 µg/mL
same,EC50,PA-1,3.6 µg/mL
same,EC50,Jurkat,0.9 µg/mL
C=C(C)[C@@H]1CC[C@]2(C(=O)O)CC[C@]3(C)C(CCC4[C@@]5(C)CC[C@H](OC(=O)C(C)(C)C)C(C)(C)C5CC[C@]43C)C12 (stereo partly specified),EC50,CCRF-CEM,> 10 µg/mL
same,EC50,DU-145,1 µg/mL
same,EC50,U-937,> 10 µg/mL
same,EC50,MOLT-4,2.4 µg/mL
same,EC50,A549,> 10 µg/mL
same,EC50,BRISTOL8,> 10 µg/mL
same,EC50,L132,> 10 µg/mL
same,EC50,PA-1,0.7 µg/mL
same,EC50,Jurkat,> 10 µg/mL
CC(C)[C@@H]1CC[C@]2(C(=O)O)CC[C@]3(C)C(CCC4[C@@]5(C)CC/C(=N\O)C(C)(C)C5CC[C@]43C)C12 (stereo partly specified),EC50,CCRF-CEM,2.6 µg/mL
same,EC50,DU-145,1.1 µg/mL
same,EC50,U-937,2.4 µg/mL
same,EC50,MOLT-4,2.1 µg/mL
same,EC50,A549,> 1.8 µg/mL
same,EC50,BRISTOL8,1.6 µg/mL
same,EC50,L132,1.5 µg/mL
same,EC50,PA-1,0.7 µg/mL
same,EC50,Jurkat,1.8 µg/mL
C=C(C)[C@@H]1CC[C@]2(C(=O)O)CC[C@]3(C)C(CCC4[C@@]5(C)CC[C@H](OC(C)=O)C(C)(C)C5CC[C@]43C)C12 (stereo partly specified),EC50,DU-145,2.6 µg/mL
same,EC50,U-937,1.6 µg/mL
same,EC50,MOLT-4,3.1 µg/mL
same,EC50,A549,> 10 µg/mL
same,EC50,BRISTOL8,4.8 µg/mL
same,EC50,L132,> 10 µg/mL
same,EC50,PA-1,4.1 µg/mL
same,EC50,Jurkat,1.8 µg/mL
CC(Br)(CBr)[C@@H]1CC[C@]2(C(=O)O)CC[C@]3(C)C(CCC4[C@@]5(C)CC(Br)[C@H](O)C(C)(C)C5CC[C@]43C)C12 (stereo partly specified),EC50,CCRF-CEM,6.8 µg/mL
same,EC50,DU-145,> 10 µg/mL
same,EC50,U-937,> 10 µg/mL
same,EC50,MOLT-4,3.6 µg/mL
same,EC50,A549,> 10 µg/mL
same,EC50,BRISTOL8,7 µg/mL
same,EC50,L132,> 10 µg/mL
same,EC50,PA-1,6 µg/mL
same,EC50,Jurkat,> 10 µg/mL
